For assay [1], the target named is T1, LonP1 C637S (Homo sapiens, UniProt P36776, C637S).
T1 construct: hexa-histidine (N); made in house; host or cells: Rosetta 2 E. coli
T1 sequence (P36776 68-959 C637S): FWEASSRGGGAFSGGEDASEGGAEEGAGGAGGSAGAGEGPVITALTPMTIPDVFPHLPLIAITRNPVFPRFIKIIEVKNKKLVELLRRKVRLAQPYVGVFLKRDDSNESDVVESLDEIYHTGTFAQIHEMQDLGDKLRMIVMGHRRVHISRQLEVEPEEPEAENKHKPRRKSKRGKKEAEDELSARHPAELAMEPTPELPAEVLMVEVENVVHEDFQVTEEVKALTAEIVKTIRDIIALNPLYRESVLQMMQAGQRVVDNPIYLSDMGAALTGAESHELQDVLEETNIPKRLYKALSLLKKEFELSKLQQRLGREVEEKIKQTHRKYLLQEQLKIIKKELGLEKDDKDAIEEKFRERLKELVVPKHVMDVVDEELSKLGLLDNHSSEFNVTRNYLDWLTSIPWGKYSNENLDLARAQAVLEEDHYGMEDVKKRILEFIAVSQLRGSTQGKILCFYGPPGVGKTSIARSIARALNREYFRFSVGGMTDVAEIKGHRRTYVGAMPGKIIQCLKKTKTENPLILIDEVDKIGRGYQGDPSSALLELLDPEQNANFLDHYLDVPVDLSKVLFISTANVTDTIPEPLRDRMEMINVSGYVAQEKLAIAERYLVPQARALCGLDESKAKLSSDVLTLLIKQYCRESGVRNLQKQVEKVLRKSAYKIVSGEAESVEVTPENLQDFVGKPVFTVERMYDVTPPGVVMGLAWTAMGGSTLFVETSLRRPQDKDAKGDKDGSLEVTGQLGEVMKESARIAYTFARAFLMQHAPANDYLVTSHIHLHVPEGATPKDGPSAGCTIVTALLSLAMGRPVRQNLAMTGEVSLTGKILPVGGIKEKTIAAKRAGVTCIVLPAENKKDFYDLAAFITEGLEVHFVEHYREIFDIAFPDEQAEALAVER
The assay can be described thus: Endpoint ATPase assay, LonP1 C637S. The class given is biochemical. On the procedure: (§1) Human mitochondrial LonP1 and mutants lacking the predicted mitochondrial targeting sequence were fused to an N-terminal hexa-histidine affinity tag, expressed in Rosetta 2 E. Coli, and purified using a nickel agarose column as previously described ([72]) and protein concentration and buffer exchange carried out using Amicon Ultra centrifugal filtration. LonP1 mutant constructs were obtained from the PCR-based QuikChange Site-Directed Mutagenesis Kit.
(§2) ADP-Glo (Promega) assays were performed according to the manufacturer's protocols. Purified wild-type or mutant LonP1 (400 nM monomer), the 26S proteasome (3 nM), or no enzyme controls were preincubated in 96-well plates (60 min, 25 °C) with ten different concentrations of CDDO and its derivatives, TP-82, enoxolone (5 μM) or DMSO vehicle control in buffer (40 mM Tris-HCl (pH 7.5), 20 mM MgCl2, 0.1 mg/ml BSA and 5% DMSO). The 26S and 20S proteasome were also assayed at 0, 0.75, 1.5, 3, 6, and 12 nM in the absence of CDDO derivatives. […] Assay reagents were used to quench further ATPase activity and generate luminescence signals proportional to the concentration of ADP formed. Background (no enzyme control) luminescence values were subtracted, and resultant values were reported as a percentage of the no drug control (100%). […]

The target of assay [2] is T2, LonP1 F547A/C637V (Homo sapiens, UniProt P36776, C637V/F547A).
T2 construct: hexa-histidine (N); made in house; host or cells: Rosetta 2 E. coli
T2 sequence (P36776 68-959 F547A/C637V): T1 sequence (P36776 68-959 C637S) with F480A, S570V
The assay can be described thus: Endpoint ATPase assay, LonP1 F547A/C637V. Type of assay: biochemical. How it is done:
as §1, §2

Positions count from the first letter of the chain named.

The term IC50 denotes the concentration needed to halve the response being measured. In the case of `CC1(C)CC[C@]2(C(=O)O)CC[C@]3(C)[C@H](C(=O)C=C4[C@@]5(C)C=C(C#N)C(=O)C(C)(C)[C@@H]5CC[C@]43C)[C@@H]2C1` [CDDO, 2-cyano-3,12-dioxooleana-1,9(11)-dien-28-oic acid], the “Fold increase in inhibition compared with WT” value in assay [1] is reported as 4.7; in assay [2] it was 7.4. For the same compound, the half-inhibitory concentration (IC50) is 3000 nM in assay [1] (end-point ATPase assay, N = 1, read-out: CDDO IC50) and 1900 ± 300 nM in assay [2] (end-point ATPase assay, read-out: CDDO IC50).

These data come from publication PMC8921294, “Inhibition of mitochondrial LonP1 protease by allosteric blockade of ATP binding and hydrolysis via CDDO and its derivatives” (The Journal of Biological Chemistry, 2022).
